We go through 2 compounds from patent EP2511272B1, “Synthetic analogues of abscisic acid with anti-inflammatory and insulin release stimulation effects on human cells” (Universita' degli Studi di Genova, priority 2011, dated 2012).

Data set [1] deals with T1, ABA receptor (Homo sapiens, UniProt Q9NS86).
T1 construct: Human granulocytes (7 x 10^6 per point), after ON incubation in complete DMEM/F12, were incubated in triplicate; endogenous in cells; host or cells: human granulocytes (intact cells)
T1 sequence (Q9NS86 1-450): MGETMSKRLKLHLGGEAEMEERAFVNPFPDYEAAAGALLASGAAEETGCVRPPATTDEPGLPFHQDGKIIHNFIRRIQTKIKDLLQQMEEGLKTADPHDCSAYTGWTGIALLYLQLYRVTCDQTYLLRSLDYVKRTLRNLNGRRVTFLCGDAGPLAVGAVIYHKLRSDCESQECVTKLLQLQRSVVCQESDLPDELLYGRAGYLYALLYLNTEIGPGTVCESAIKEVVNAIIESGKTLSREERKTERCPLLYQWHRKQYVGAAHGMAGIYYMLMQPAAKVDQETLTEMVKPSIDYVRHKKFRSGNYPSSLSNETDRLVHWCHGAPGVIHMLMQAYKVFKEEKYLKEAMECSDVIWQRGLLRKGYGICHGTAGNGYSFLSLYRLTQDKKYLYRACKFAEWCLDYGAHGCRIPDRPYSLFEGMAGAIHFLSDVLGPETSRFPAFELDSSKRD
Particulars: value used in Cheng-Prusoff equation (Yamazaki e al., 2003); cited from earlier work.

In data set [2] the target is T1, ABA receptor. Nature of the data set: Competition binding with [^3H]-ABA on human granulocytes. As to the method: Human granulocytes (7 x 10^6 per point), after ON incubation in complete DMEM/F12, were incubated in triplicate at 25 °C for 60 min in 100 µl of HBSS spiked with glucose 10 mM in the presence either of an excess of unlabeled ABA (1 mM) (in order to determine the non-specific binding rate) or of increasing concentrations of compound prepared according to example 1 (from 0,01 nM up to 100 µM). To each compound, 10 nM of [^3H]-ABA (GE Healthcare) with specific activity of 98,000 cpm/pmole were added. At the end of incubation, the cells were centrifuged for 30 sec at […], the supernatant was removed and discarded, and the pellet was washed once wih an excess of HBSS in ice, and centrifuged for 30 sec at 17,000xg. The pellet was resuspended in 200 µl of de-ionized water and radioactivity of cells was determined after addition of scintillation cocktail in a β counter.
Specific binding was computed as the difference between the total binding of [^3H]-ABA in the cells and the binding of [^3H]-ABA in the presence of an excess of unlabeled ABA (1 mM) (non-specific binding).
The experiment was carried out five times in triplicate.

Data set [3] concerns 1321 N1 (human astrocytoma). The data set is described as follows: Cytotoxicity, CellTiter 96 AQueous One Solution assay. Type of data set: cell-based. The conditions noted are these: 24 hrs.
Data set [4] can be described thus: Stability after extraction from human plasma (HPLC-MS). Type of data set: in vitro ADME. Particulars: for Stability after extraction (amount found): Plasma, 10 µM. As to the method: Compound prepared according to example 1 was tested for stability at 10 µM concentration in deionized water, phosphate buffer (HBSS with calcium and magnesium) and human plasma for 0 and after 24 hrs at 37 °C, by carrying out the extraction as described in Materials and Methods, and subsequent HPLC-MS analysis for the analyte of interest.
For stability tests, to 2 ml of deionized water, HBSS or human plasma, the compound of example 1 (10 µM) and 5,000 cpm of [^3H]ABA were added, for the purpose of evaluating the recovery after the extraction procedure. The so prepared samples were exctracted at time 0 and after 24 hrs.
For the extraction, 8 ml was added of distilled methanol (methanol/water : 80/20 vol/vol) and the mixture was kept at -20 °C overnight.
The following day the samples were centrifuged at 800xg for 10 minutes and the supernatant was concentrated to dryness by Rotavapor. The reconstituted aqueous solution was acidified at pH 2.6 with 10 % trifluoroacetric acid (TFA) and was extracted three times with diethyl ether (diethyl ether/water: 1:1 vol/vol).
The ethereal phase was finally removed by Rotavapor and the extraxt was resuspended in 1 ml of HBSS; 8 µl of such solution was analysed by HPLC-MS, and 100 µl was used for radioactivity counting by a Packard β-counter in order to compute extraction recovery.
(§1) The HPLC-MS system used consists of an Agilent 1100 capillary chromatograph equipped with a diode array detector (DAD) and coupled with an Agilent 1100 series LC/MSD Trap mass spectometer with orthogonal electrospray source and a ionic-trap analyser.
(§2) The detection wavelength was 254 nm and the MS spectrum was recorded in negative ions mode in an m/z range of 50-300.
(§3) The amount of compound of example 1 in the extracts and supernatants was computed as the area of the peak under the extracted ion current m/z 279.3, normalized for the ionization efficiency of internal standard (hexadeuterated ABA) used for HPLC-MS analysis. Furthermore, the concentration was computed using the recovery rates obtained from the evaluation of counts per minute (cpm) of extracted [^3H]ABA.

Data set [5] deals with Raw 264.7 (murine monocitic leukemia). Nature of the data set: Cytotoxicity, CellTiter 96 AQueous One Solution assay. Type of data set: cell-based. The conditions noted are these: 24 hrs.
The nature of data set [6]: Stability without extraction in H2O and HBSS (HPLC-MS). The data set is classed as physicochemical. The conditions noted are these: 10 µM, 37 °C. As to the method:
Additionally, stability tests were carried out in water, in HBSS and in HBSS in the presence of human granulocytes at time 0, and after 1 and 2 hrs at 37 °C, and carrying out HPLC-MSS analysis without extracting the analyte of interest.
In order to test the compound prepared according to example 1 for stability in HBSS in the presence, or absence, of granulocytes, 1 x 10^8 cells were used in 2 ml of HBSS (with calcium and magnesium added) containing 10 µM of compound prepared according to example 1 at 37°C. Samples of 500 µl each were drawn at time 0, and after 1 and 2 hrs and the cells were separated by centrifugation at 200xg for 5 minutes; the supernatant was then recovered and directly analysed in HPLC-MS.
as §1, §2, §3

Each structure is given as a SMILES string.

With `CC1=CC(=O)CC(C)(C)C1(O)/C=C/C(C)=C\C(=O)O` (racemic) [ABA, (2Z,4E)-5-(1-hydroxy-2,6,6-trimethyl-4-oxo-2-cyclohexen-1-yl)-3-methyl-2,4-pentadienoic acid, reference compound], the Kd (commonly the constant that tells how readily two partners part at equilibrium) on ABA receptor [1] is 11 nM.

As to `CC(=C/C(=O)O)/C=C/C1(O)C(C)(C)CC(=O)C2OC21C` (stereo not drawn) [Example 1, 2'α,3'α-dihydro-2'α,3'α-epoxyabscisic acid], on ABA receptor [2] (Cheng-Prusoff, [ABA] =10 nM, KD ABA = 11 nM, 95% confidence intervals 0.25 nM to 0.83 nM, read-out: inhibition constant Ki), the Ki – broadly, a dissociation constant, usually derived from enzyme kinetics or from competition with a known ligand – was 0.46 nM. Also, the IC50 (commonly the concentration needed to halve the response being measured) at ABA receptor [2] (displaces 50 % of radioligand specific binding, 95 % confidence intervals 0.48 nM to 1.58 nM) was found to be 0.87 nM. The number of cells in data set [3] (1 nM) was 16199; in data set [3] (10 nM), 18785; in data set [3] (1 µM), 19446; in data set [3] (100 µM) it was 22252; in data set [5] (1 nM), 306321; in data set [5] (10 nM), 30555. Further, the number of cells is listed as 274987 in data set [5] (1 µM) and 290264 in data set [5] (100 µM). In addition, the vitality % in data set [3] (1 nM) stood at 89%; in data set [3] (10 nM), 102%; in data set [3] (1 µM), 106%; in data set [3] (100 µM), 120%; in data set [5] (1 nM) it was 100%; in data set [5] (10 nM) it was 100%. Also, the vitality % in data set [5] (1 µM) is given as 90%; in data set [5] (100 µM), 95%. In addition, the “Stability after extraction (amount found)” value in data set [4] (0 hr, equals extraction yield, listed as compound of example 1) was 56%; in data set [4] (0 hr, equals extraction yield, listed as compound prepared according to example 1), 56%; in data set [4] (24 hrs at 37 °C) it was 49%. Also, the degradation in data set [4] (in plasma, 0 vs 24 hrs) is on record as 7%. For the same compound, the “Stability (without extraction)” value in data set [6] (H2O, 0 hr) is on record as 100%; in data set [6] (H2O, 1 h) it was 100%; in data set [6] (H2O, 2 hrs), 98%; in data set [6] (HBSS, 0 hr), 100%; in data set [6] (HBSS, 1 h), 100%; in data set [6] (HBSS, 2 hrs), 89%.
